Test results as given in patent US10065963B2 (Incyte Corporation, priority 2015, dated 2018).
Where a name gives a salt, the structure may show the parent alone.

Tests used:
[1] = biological target: PI3Kδ (p110δ/p85α) Recombinant Human Protein (Homo sapiens (Human), UniProt O00329); test: PI3Kδ scintillation proximity assay; format: biochemical; settings: 2 μM ATP, 20 μM PIP2
[2] = test system: Phosphorylated Ribosomal Protein S6 (RPS6) in THP-1 cells; test: THP-1 RPS6 ELISA assay; format: cell-based, human; settings: Homo sapiens, THP-1, THP-1 cells, 10 nM MCP-1; read-out: PI3Kγ_THP1_RPS6_ELISA IC50
[3] = biological target: PI3Kγ (p110γ) Recombinant Human Protein (Homo sapiens (Human), UniProt P48736); test: PI3K-γ scintillation proximity assay; format: biochemical; settings: 2 μM ATP, 20 μM PIP2
PI3Kγ (p110γ) Recombinant Human Protein, sequence (P48736 whole entry): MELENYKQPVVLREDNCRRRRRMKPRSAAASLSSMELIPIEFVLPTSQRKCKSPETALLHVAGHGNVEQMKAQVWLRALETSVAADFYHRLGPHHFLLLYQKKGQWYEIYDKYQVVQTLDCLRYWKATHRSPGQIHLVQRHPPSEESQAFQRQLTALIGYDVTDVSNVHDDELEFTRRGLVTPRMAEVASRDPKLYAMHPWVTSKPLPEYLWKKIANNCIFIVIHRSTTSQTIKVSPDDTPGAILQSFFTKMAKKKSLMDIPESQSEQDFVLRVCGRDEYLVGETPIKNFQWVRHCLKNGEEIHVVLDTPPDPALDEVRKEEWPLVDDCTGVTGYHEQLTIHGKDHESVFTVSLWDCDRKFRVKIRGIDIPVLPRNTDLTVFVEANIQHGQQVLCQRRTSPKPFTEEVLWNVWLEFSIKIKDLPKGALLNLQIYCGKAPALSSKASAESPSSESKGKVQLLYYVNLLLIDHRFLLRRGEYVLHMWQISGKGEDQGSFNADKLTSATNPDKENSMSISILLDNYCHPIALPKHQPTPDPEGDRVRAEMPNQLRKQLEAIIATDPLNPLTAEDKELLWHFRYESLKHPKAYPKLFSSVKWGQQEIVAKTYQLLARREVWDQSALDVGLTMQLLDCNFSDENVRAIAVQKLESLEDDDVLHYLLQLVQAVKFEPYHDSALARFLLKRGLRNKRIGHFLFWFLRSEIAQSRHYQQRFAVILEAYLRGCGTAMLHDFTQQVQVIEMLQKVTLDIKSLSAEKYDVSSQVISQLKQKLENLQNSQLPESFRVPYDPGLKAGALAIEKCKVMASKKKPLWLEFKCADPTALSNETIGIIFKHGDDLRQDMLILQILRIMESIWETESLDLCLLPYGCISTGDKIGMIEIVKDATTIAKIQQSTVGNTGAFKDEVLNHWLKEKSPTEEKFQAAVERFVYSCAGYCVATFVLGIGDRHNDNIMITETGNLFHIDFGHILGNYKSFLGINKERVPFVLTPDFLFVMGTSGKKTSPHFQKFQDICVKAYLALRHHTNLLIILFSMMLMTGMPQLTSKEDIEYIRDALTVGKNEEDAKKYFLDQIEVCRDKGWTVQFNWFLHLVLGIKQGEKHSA

PI3Kδ (p110δ/p85α) Recombinant Human Protein, sequence (O00329 whole entry): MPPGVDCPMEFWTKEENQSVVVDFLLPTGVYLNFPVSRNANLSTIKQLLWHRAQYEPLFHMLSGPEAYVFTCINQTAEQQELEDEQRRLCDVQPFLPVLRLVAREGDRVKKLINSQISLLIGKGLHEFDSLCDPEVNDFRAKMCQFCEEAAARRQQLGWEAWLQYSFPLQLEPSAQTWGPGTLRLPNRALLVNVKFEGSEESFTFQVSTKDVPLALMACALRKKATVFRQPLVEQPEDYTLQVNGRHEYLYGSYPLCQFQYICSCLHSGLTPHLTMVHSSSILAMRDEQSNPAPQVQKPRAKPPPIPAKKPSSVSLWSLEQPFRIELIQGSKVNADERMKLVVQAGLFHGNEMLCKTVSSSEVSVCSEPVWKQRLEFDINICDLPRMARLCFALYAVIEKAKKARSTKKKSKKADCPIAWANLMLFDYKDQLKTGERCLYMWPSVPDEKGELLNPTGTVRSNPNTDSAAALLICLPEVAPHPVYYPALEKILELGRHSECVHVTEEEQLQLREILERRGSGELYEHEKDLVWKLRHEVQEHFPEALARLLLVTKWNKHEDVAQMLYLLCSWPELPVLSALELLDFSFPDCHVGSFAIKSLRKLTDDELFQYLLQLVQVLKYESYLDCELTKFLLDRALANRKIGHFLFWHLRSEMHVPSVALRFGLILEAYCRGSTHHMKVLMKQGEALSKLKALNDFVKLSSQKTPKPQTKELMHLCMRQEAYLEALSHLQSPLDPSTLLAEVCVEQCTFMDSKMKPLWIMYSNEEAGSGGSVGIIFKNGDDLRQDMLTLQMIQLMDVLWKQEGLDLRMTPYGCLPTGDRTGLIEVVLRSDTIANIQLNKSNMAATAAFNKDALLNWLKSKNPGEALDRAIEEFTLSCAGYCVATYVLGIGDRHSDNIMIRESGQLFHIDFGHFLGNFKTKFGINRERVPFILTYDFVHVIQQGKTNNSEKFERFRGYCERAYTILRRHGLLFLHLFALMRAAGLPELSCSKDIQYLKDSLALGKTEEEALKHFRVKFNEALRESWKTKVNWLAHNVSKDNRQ
PI3Kδ (p110δ/p85α) Recombinant Human Protein, sequence (P27986 whole entry partner): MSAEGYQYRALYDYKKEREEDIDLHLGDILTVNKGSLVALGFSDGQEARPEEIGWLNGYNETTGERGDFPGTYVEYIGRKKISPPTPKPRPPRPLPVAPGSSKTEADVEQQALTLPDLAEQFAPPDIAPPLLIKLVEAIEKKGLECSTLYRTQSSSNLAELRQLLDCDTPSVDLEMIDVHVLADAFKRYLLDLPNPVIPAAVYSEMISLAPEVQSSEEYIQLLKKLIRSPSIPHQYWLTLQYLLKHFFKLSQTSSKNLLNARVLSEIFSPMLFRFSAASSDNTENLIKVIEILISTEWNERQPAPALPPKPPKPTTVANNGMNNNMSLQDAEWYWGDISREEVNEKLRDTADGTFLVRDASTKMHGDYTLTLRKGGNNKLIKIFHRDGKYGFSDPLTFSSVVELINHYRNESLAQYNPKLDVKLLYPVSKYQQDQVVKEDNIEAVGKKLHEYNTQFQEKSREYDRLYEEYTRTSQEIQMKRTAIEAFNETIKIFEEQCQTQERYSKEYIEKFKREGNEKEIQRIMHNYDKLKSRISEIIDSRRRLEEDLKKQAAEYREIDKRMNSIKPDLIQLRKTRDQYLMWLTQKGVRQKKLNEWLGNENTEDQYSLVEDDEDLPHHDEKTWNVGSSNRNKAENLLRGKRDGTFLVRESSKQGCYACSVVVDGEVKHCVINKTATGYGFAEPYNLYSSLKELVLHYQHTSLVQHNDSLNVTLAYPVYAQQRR

Structure (SMILES) | IC50 [1] | IC50 [2] | IC50 [3]
CC(NC(=O)c1c(N)nn2cccnc12)c1cc(Cl)c2cncn2c1-c1ccc(S(C)(=O)=O)cc1 (racemic) [Example 136, 2-Amino-N-(1-{8-chloro-5-[4-(methylsulfonyl)phenyl]imidazo[1,5-a]pyridin-6-yl}ethyl)pyrazolo[1,5-a]pyrimidine-3-carboxamide trifluoroacetate salt] | < 500 nM | > 1000 nM | < 100 nM
CC(NC(=O)c1c(N)nn2cccnc12)c1cc(Cl)c2cncn2c1-c1cnccn1 (racemic) [Example 138, 2-Amino-N-[1-(8-chloro-5-pyrazin-2-ylimidazo[1,5-a]pyridin-6-yl)ethyl]pyrazolo[1,5-a]pyrimidine-3-carboxamide trifluoroacetate salt] | < 500 nM | < 1000 nM | < 100 nM
CC(NC(=O)c1c(N)nn2cccnc12)c1cc(Cl)c2cncn2c1-c1cn[nH]c1 (racemic) [Example 139, 2-Amino-N-{1-[8-chloro-5-(1H-pyrazol-4-yl)imidazo[1,5-a]pyridin-6-yl]ethyl}pyrazolo[1,5-a]pyrimidine-3-carboxamide trifluoroacetate salt] | < 100 nM | < 500 nM | < 100 nM
CC(NC(=O)c1c(N)nn2cccnc12)c1cc(Cl)c2cncn2c1-c1cnn(C)c1 (racemic) [Example 140, 2-Amino-N-{1-[8-chloro-5-(1-methyl-1H-pyrazol-4-yl)imidazo[1,5-a]pyridin-6-yl]ethyl}pyrazolo[1,5-a]pyrimidine-3-carboxamide trifluoroacetate salt] | < 100 nM | < 500 nM | < 100 nM
CC(NC(=O)c1c(N)nn2cccnc12)c1cc(Cl)c2cncn2c1N1CCN(S(C)(=O)=O)CC1 (racemic) [Example 141, 2-Amino-N-(1-{8-chloro-5-[4-(methylsulfonyl)piperazin-1-yl]imidazo[1,5-a]pyridin-6-yl}ethyl)pyrazolo[1,5-a]pyrimidine-3-carboxamide trifluoroacetate salt] | < 500 nM | < 500 nM | < 100 nM
CC(NC(=O)c1c(N)nn2cccnc12)c1cc(Cl)c2cncn2c1N1CCCC1 (racemic) [Example 142, 2-Amino-N-[1-(8-chloro-5-pyrrolidin-1-ylimidazo[1,5-a]pyridin-6-yl)ethyl]pyrazolo[1,5-a]pyrimidine-3-carboxamide trifluoroacetate salt] | < 100 nM | < 500 nM | < 100 nM
CC(NC(=O)c1c(N)nn2cccnc12)c1cc(Cl)c2cncn2c1N1CCOCC1 (racemic) [Example 145, 2-Amino-N-[1-(8-chloro-5-morpholin-4-ylimidazo[1,5-a]pyridin-6-yl)ethyl]pyrazolo[1,5-a]pyrimidine-3-carboxamide trifluoroacetate salt] | < 100 nM | > 1000 nM | < 100 nM
CC(NC(=O)c1c(N)nn2cccnc12)c1cc(Cl)c2cncn2c1N1CCC(Br)CC1 (racemic) [Example 147, 2-Amino-N-{1-[5-(4-bromopiperidin-1-yl)-8-chloroimidazo[1,5-a]pyridin-6-yl]ethyl}pyrazolo[1,5-a]pyrimidine-3-carboxamide trifluoroacetate salt] | < 500 nM | < 500 nM | < 100 nM
CC(NC(=O)c1c(N)nn2cccnc12)c1cc(Cl)c2cncn2c1N1CCCS(=O)(=O)CC1 (racemic) [Example 151, 2-Amino-N-{1-[8-chloro-5-(1,1-dioxido-1,4-thiazepan-4-yl)imidazo[1,5-a]pyridin-6-yl]ethyl}pyrazolo[1,5-a]pyrimidine-3-carboxamide trifluoroacetate salt] | < 100 nM | < 500 nM | < 100 nM
CC(NC(=O)c1c(N)nn2cccnc12)c1cc(Cl)c2cncn2c1N1CCN(C)C(=O)C1 (racemic) [Example 154, 2-Amino-N-{1-[8-chloro-5-(4-methyl-3-oxopiperazin-1-yl)imidazo[1,5-a]pyridin-6-yl]ethyl}pyrazolo[1,5-a]pyrimidine-3-carboxamide trifluoroacetate salt] | < 500 nM | < 1000 nM | < 500 nM
CC(NC(=O)c1c(N)nn2cccnc12)c1cc(Cl)c2c(Cl)ncn2c1N1CCS(=O)(=O)CC1 (racemic) [Example 162, 2-Amino-N-{1-[1,8-dichloro-5-(1,1-dioxidothiomorpholin-4-yl)imidazo[1,5-a]pyridin-6-yl]ethyl}pyrazolo[1,5-a]pyrimidine-3-carboxamide trifluoroacetate salt] | < 500 nM | < 500 nM | < 100 nM
CC(NC(=O)c1c(N)nn2cccnc12)c1cc(Cl)c2c(Cl)ncn2c1N1CCC(C#N)CC1 (racemic) [Example 163, 2-Amino-N-{1-[1,8-dichloro-5-(4-cyanopiperidin-1-yl)imidazo[1,5-a]pyridin-6-yl]ethyl}pyrazolo[1,5-a]pyrimidine-3-carboxamide trifluoroacetate salt] | < 100 nM | < 500 nM | < 100 nM
CC(NC(=O)c1c(N)nn2cccnc12)c1cc(Cl)c2c(C#N)ncn2c1N1CCS(=O)(=O)CC1 (racemic) [Example 164, 2-Amino-N-{1-[8-chloro-1-cyano-5-(1,1-dioxidothiomorpholin-4-yl)imidazo[1,5-a]pyridin-6-yl]ethyl}pyrazolo[1,5-a]pyrimidine-3-carboxamide trifluoroacetate salt] | < 2000 nM | > 1000 nM | < 100 nM
CC1CN(c2c(CNC(=O)c3c(N)nn4cccnc34)cc(Cl)c3c(Cl)ncn23)CCS1(=O)=O (racemic) [Example 169, 2-Amino-N-((1,8-dichloro-5-(2-methyl-1,1-dioxidothiomorpholino)imidazo[1,5-a]pyridin-6-yl)methyl)pyrazolo[1,5-a]pyrimidine-3-carboxamide trifluoroacetate salt] | < 500 nM | < 500 nM | < 100 nM
Nc1nn2cccnc2c1C(=O)NC(c1cc(Cl)c2cncn2c1N1CCS(=O)(=O)CC1)C(F)(F)F (racemic) [Example 180, 2-Amino-N-{1-[8-chloro-5-(1,1-dioxidothiomorpholin-4-yl)imidazo[1,5-a]pyridin-6-yl]-2,2,2-trifluoroethyl}pyrazolo[1,5-a]pyrimidine-3-carboxamide trifluoroacetate salt] | < 100 nM | < 500 nM | < 100 nM
CC(C)C(NC(=O)c1c(N)nn2cccnc12)c1cc(Cl)c2cncn2c1N1CCS(=O)(=O)CC1 (racemic) [Example 181, 2-Amino-N-(1-(8-chloro-5-(1,1-dioxidothiomorpholino)imidazo[1,5-a]pyridin-6-yl)-2-methylpropyl)pyrazolo[1,5-a]pyrimidine-3-carboxamide trifluoroacetate salt] | < 100 nM | < 500 nM | < 100 nM

The next lines start with the values.

IC50 [1] | IC50 [2] | IC50 [3] | Structure (SMILES)
< 100 nM | < 500 nM | < 100 nM | CC(NC(=O)c1c(N)nn2cccnc12)c1cc(Cl)c2cncn2c1-c1cncc(C#N)c1 (racemic) [Example 137, 2-Amino-N-{1-[8-chloro-5-(5-cyanopyridin-3-yl)imidazo[1,5-a]pyridin-6-yl]ethyl}pyrazolo[1,5-a]pyrimidine-3-carboxamide trifluoroacetate salt]
< 500 nM | < 1000 nM | < 100 nM | COC1CCN(c2c(C(C)NC(=O)c3c(N)nn4cccnc34)cc(Cl)c3cncn23)CC1 (racemic) [Example 143, 2-Amino-N-{1-[8-chloro-5-(4-methoxypiperidin-1-yl)imidazo[1,5-a]pyridin-6-yl]ethyl}pyrazolo[1,5-a]pyrimidine-3-carboxamide]
< 100 nM | < 500 nM | < 100 nM | CC(NC(=O)c1c(N)nn2cccnc12)c1cc(Cl)c2cncn2c1N1CCC(O)CC1 (racemic) [Example 146, 2-Amino-N-{1-[8-chloro-5-(4-hydroxypiperidin-1-yl)imidazo[1,5-a]pyridin-6-yl]ethyl}pyrazolo[1,5-a]pyrimidine-3-carboxamide trifluoroacetate salt]
< 100 nM | < 500 nM | < 100 nM | CC(NC(=O)c1c(N)nn2cccnc12)c1cc(Cl)c2cncn2c1N1CCNS(=O)(=O)CC1 (racemic) [Example 149, 2-Amino-N-{1-[8-chloro-5-(1,1-dioxido-1,2,5-thiadiazepan-5-yl)imidazo[1,5-a]pyridin-6-yl]ethyl}pyrazolo[1,5-a]pyrimidine-3-carboxamide]
< 500 nM | < 500 nM | < 100 nM | CC(NC(=O)c1c(N)nn2cccnc12)c1cc(Cl)c2cncn2c1N1C[C@H](O)C[C@@H](O)C1 (mixture of isomers) [Example 155A, 2-Amino-N-(1-{8-chloro-5-[(3R,5R)-3,5-dihydroxypiperidin-1-yl]imidazo[1,5-a]pyridin-6-yl}ethyl)pyrazolo[1,5-a]pyrimidine-3-carboxamide trifluoroacetate salt]
< 500 nM | < 500 nM | < 100 nM | Cc1ncc2c(Cl)cc(C(C)NC(=O)c3c(N)nn4cccnc34)c(N3CCCS(=O)(=O)CC3)n12 (racemic) [Example 158, 2-Amino-N-(1-(8-chloro-5-(1,1-dioxido-1,4-thiazepan-4-yl)-3-methylimidazo[1,5-a]pyridin-6-yl)ethyl)pyrazolo[1,5-a]pyrimidine-3-carboxamide trifluoroacetate salt]
< 500 nM | < 500 nM | < 100 nM | CC1CN(c2c(CNC(=O)c3c(N)nn4cccnc34)cc(Cl)c3cncn23)CCS1(=O)=O (racemic) [Example 167, 2-Amino-N-((8-chloro-5-(2-methyl-1,1-dioxidothiomorpholino)imidazo[1,5-a]pyridin-6-yl)methyl)pyrazolo[1,5-a]pyrimidine-3-carboxamide trifluoroacetate salt]
